# Results as given in patent US5071848A, “Tricyclic quinoline antineoplastic agents” (Abbott Laboratories, priority 1989, dated 1991).
# Entries after “also recorded” stand apart in the source; their conditions may differ. Like-named read-outs stand apart in the source and are kept apart here.
# Experiments:
# DNA topoisomerase II = assay: DNA Breakage Assay: topoisomerase II-mediated DNA breakage (linearized 32P-labeled PBR 322 plasmid, agarose gel); type: biochemical, calf; parameters: key to Topoisomerase II-mediated DNA breakage, extent of breakage: SB: strong breakage; MB: moderate breakage; WB: weak breakage; settings: for Topoisomerase II-mediated DNA breakage, extent of breakage: at the concentration given; for Topoisomerase II-mediated DNA breakage, Concentration: concentration of compound which cleaves the DNA to smaller fragments, 30 minutes incubation
# Description: Antitumor activity was assayed using the DNA Breakage Assay described below.
# The DNA breakage assay requires two major reagents: DNA topoisomerase II and radiolabeled DNA. DNA topoisomerase II (topo II) was isolated from calf thymus as described by B. D. Holligan, et al. in J. Biol. Chem., 260, 2475-2482 (1985). Pure enzyme or partially purified extracts enriched in topo II activity may be used. PBR 322 plasmid was used as the DNA substrate. This plasmid, which is isolated in the closed circular form, is first linearized using, a restriction enzyme which cuts the plasmid in only one place. The newly exposed ends of the plasmid are then labeled with the radionuclide, 32P, using standard techniques described by T. Maniatis, et al. in "Molecular Cloning", Cold Spring Harbor Press, p. 115 (1982).
# The enzyme and the radiolabeled DNA are added together first, then drug is added. After an incubation period of 30 minutes, the mixtures are quenched using 1% SDS. The mixtures are then subjected to agarose gel electrophoresis which separates the full length, linear substrate DNA from any small fragments that might be formed as a consequence of drug action. Smaller fragments run with a higher mobility. The distribution of the DNA species in the gel is assessed by autoradiography as described by T. Maniatis, et al. in "Molecular Cloning", Cold Spring Harbor Press, p. 115 (1982).
# DNA breakage activity is assessed based on the level of substrate lost, the level of DNA appearing as smaller pieces running faster in the gel, and the distribution of these smaller pieces in the gel. The last criterion is important since drug-induced DNA cleavage that is enzyme-mediated fragmentation results in specific banding patterns due to the fact that the enzyme binds to specific sequences along the DNA molecule. A definite banding pattern is thus indicative of topo II-mediated cleavage and correlates well with anti-tumor activity.
# Hela cells = assay: In vitro cytotoxicity assay (three day MTT microtiter assay), Hela; type: cell-based; settings: Homo sapiens, 72 h, read-out: In vitro tumor cell cytotoxicity (IC50), Hela
# Description: (§1) IC50 's were measured in a colorimetric assay for cytotoxic activity against cultured cells according to the protocol described below:
# (§2) A three day microtiter assay is used to measure the growth inhibition of cultured cells exposed to a range of drug concentrations. Metabolic activity is measured by the cell's ability to reduce the tetrazolium dye, MTT (3-(4,5-dimethylthiazol-2-yl)-2,5-diphenyltetrazolium bromide) to a quantifiable colored end-product, which absorbs at 570 nm in the visible spectrum. Surviving cells reduce the MTT dye.
# (§3) Test compounds are dissolved in dimethyl sulfoxide (DMSO) and diluted, first with Earle's Balanced Salt Solution, followed by culture medium, to twice the highest concentration of compound to be tested. From this concentrated stock, two-fold serial dilutions are prepared in 96-well microtiter trays, each well containing twice the desired final concentration of compound. Each concentration is tested in triplicate and compared to triplicate drug-free controls.
# (§4) The cells are grown in the same medium used for diluting the compounds. After harvesting by trypsinization*, viable cell counts are determined and cell density is adjusted to 25,000 cells/mL. Inoculum (0.1 mL), containing the cells, is then added to each well for a final concentration of 2,500 cells per well. Addition of the inoculum dilutes the test compounds to the desired final concentration.
# (§5) *Adherent cells are harvested by trypsinization as follows:
# (§6) 1. Remove the medium by aspiration.
# (§7) 2. Rinse cell monolayer twice with Earle's Balanced Salt Solution.
# (§8) 3. Add trypsin (0.05%)/EDTA (0.53 mM). For each 25 cm^2 use approximately 0.2 mL of solution, tilt to cover the monolayer, then withdraw trypsin leaving only a thin film of solution. Incubate at room temperature until cell monolayer detaches.
# (§9) 4. When the cells have detached as determined by visual and/or microscopic observation, add medium containing fetal calf serum to stop the action of the trypsin and resuspend the cells. Triturate to aid dissociation of cell clumps.
# (§10) 5. Determine the number of cells per milliliter by electronic cell counter (e.g. Coulter Counter) or by mixing an aliquot of cell suspension with Trypan Blue (0.4% in normal saline) and counting the viable cells using a hemacytometer.
# (§11) Microtiter trays are incubated for three days at 36° C. in a humidified atmosphere containing 5% carbon dioxide.
# (§12) After three days, 20 microtiters of 5 mg/mL MTT in phosphate-buffered saline solution is added to each well. Trays are returned to the incubator for two to four hours to allow the surviving cells to reduce the dye. Medium and unreduced dye are removed by aspiration. DMSO is added to each well to dissolve the water insoluble, colored end product of the dye reduction so that it can be measured spectrophotometrically at 570 nm.
# [1] = test system: Lewis Lung Carcinoma (LLC1) cells; assay: In vitro cytotoxicity assay (three day MTT microtiter assay), LLC1; type: cell-based, murine; settings: Mus musculus, LLC1, 72 h, read-out: In vitro tumor cell cytotoxicity (IC50), LLC1
# Description: (§13) The cytotoxity of the compounds of the present invention is illustrated in Table 6. IC50 's were measured in a colorimetric assay for cytotoxic activity against cultured cells according to the protocol described below:
# as §2, §3, §4, §5, §6, §7
# 3. […]
# (§14) 4. When the cells have detached as determined by visual and/or microscopic observation, add medium containing fetal calf serum to stop the action of the trypsin and resuspend the cells. […]
# After three days, 20 microtiters of 5 mg/mL MTT in phosphate-buffered saline solution is added to each well. […] DMSO is added to each well to dissolve the water insoluble, colored end product of the dye reduction so that it can be measured spectrophotometrically at 570 nm. […]
# [2] = test system: P388.D1 leukemia cell line; assay: In vitro cytotoxicity assay (three day MTT microtiter assay), P388.D1; type: cell-based; settings: Mus musculus, P388D1, 72 h, read-out: In vitro tumor cell cytotoxicity (IC50), P388.D1
# Description: as §13, §2, §3, §4, §5, §6, §7, §8, §9, §10, §11
# After three days, 20 microtiters of 5 mg/mL MTT in phosphate-buffered saline solution is added to each well. Trays are returned to the incubator for two to four hours to allow the surviving cells to reduce the dye. Medium and unreduced dye are removed by aspiration. DMSO is added to each well to dissolve the water insoluble, colored end product of the dye reduction so that it can be measured spectrophotometrically at 570 nm. The IC50 is determined as the concentration of compound tested required to reduce the absorbance at 570 nm to 50% of non-drug treated control values.
# ^c P388 D1 is a leukemia cell line.
# A549 cell line = assay: In vitro cytotoxicity assay (three day MTT microtiter assay), A549; type: cell-based; settings: Homo sapiens, read-out: In vitro tumor cell cytotoxicity (IC50), A549
# Description: as §1, §2, §3, §4, §5, §6, §7, §8, §9, §10, §11, §12
# [3] = test system: HCT-8 colon cancer cell line; assay: In vitro cytotoxicity assay (three day MTT microtiter assay), HCT-8; type: cell-based, human; settings: read-out: In vitro tumor cell cytotoxicity (IC50), HCT-8
# Description: as §1, §2
# Test compounds are dissolved in dimethyl sulfoxide (DMSO) and diluted, first with Earle's Balanced Salt Solution, followed by culture medium, to twice the highest concentration of compound to be tested. […]
# The cells are grown in the same medium used for diluting the compounds. After harvesting by trypsinization*, viable cell counts are determined and cell density is adjusted to 25,000 cells/mL. […]
# as §14
# After three days, 20 microtiters of 5 mg/mL MTT in phosphate-buffered saline solution is added to each well. […] DMSO is added to each well to dissolve the water insoluble, colored end product of the dye reduction so that it can be measured spectrophotometrically at 570 nm.
# DNA topoisomerases = settings: in words; known antitumor drugs; cited from earlier work
# P388 Leukemia = assay: In vivo antitumor activity, P388 Leukemia, increased lifespan; parameters: species or system BDF1 mice; settings: IP, day 1 to day 5, survival monitored 30 days
# Description: (§15) The in vivo data presented in Table 7 was determined in BDF1 mice for two murine cancer models, using 6 to 10 animals per test group. In the case of Lewis Lung carcinoma (LL) the mice are inoculated subcutaneously (SC) in the axillary region with a puncture in the inguinal area with the tumor on day 0. The compound being tested is administered intraperitoneally (IP) from day 1 to day 9 for a total of nine injections. The tumors are weighed on day 14 and the weight inhibition expressed as the median weight ratio of treated (T) to control (C) tumors. In the case of P388 Leukemia cells, a suspension of diluted ascites fluid (0.1 mL) containing 1×10^6 cells is implanted IP into the mice on day 0 and the compound being tested is administered IP from day 1 to day 5 for a total of five injections. Survival was monitored for 30 days and the increased lifespan expressed as median survival time of treated (T) to control (C) mice.
# [4] = test system: Lewis Lung carcinoma (LL); assay: In vivo antitumor activity, Lewis Lung carcinoma (LL), tumor weight inhibition; parameters: species or system BDF1 mice; settings: IP, day 1 to day 9, determined on day 14
# Description: as §15
smiles,measurement,setting,value
NC1CCN(c2c(F)cc3c(=O)c4c(=O)[nH]sc4n(C4CC4)c3c2F)C1 (stereo not shown) [Example 11],"Topoisomerase II-mediated DNA breakage, extent of breakage",DNA topoisomerase II,SB
same,"Topoisomerase II-mediated DNA breakage, Concentration",DNA topoisomerase II,32 µg/mL
same,IC50,"Hela cells; Hela cells, three days, MTT",0.95 µg/mL
same,IC50,"[1]; Lewis Lung Carcinoma, three days, MTT",0.52 µg/mL
"COc1cc([C@@H]2c3cc4c(cc3[C@@H](O[C@@H]3O[C@@H]5CO[C@@H](C)O[C@H]5[C@H](O)[C@H]3O)[C@H]3COC(=O)[C@H]23)OCO4)cc(OC)c1O [Etoposide, etoposide, reference compound]",IC50,Hela cells; HeLa,4 µg/mL
same,IC50,[2],0.05 µg/mL
same,IC50,"A549 cell line; A549, 72 h",1 µg/mL
same,IC50,"[3]; Homo sapiens, HCT-8, 72 h",0.68 µg/mL
same,effect on DNA topoisomerase-mediated DNA breakage-rejoining / cleavage,DNA topoisomerases,found to affect the breakage-rejoining reaction of mammalian DNA mediated by DNA topoisomerases; also recorded: known to act by inducing topo II mediated DNA cleavage
O=c1[nH]sc2c1c(=O)c1cc(F)c(N3CCC(O)CC3)c(F)c1n2C1CC1 [Example 10],"Topoisomerase II-mediated DNA breakage, extent of breakage",DNA topoisomerase II,SB
same,"Topoisomerase II-mediated DNA breakage, Concentration",DNA topoisomerase II,32 µg/mL
same,IC50,[2],0.23 µg/mL
same,IC50,"A549 cell line; 72 h, A549, three days, MTT",2.9 µg/mL
same,"P388 Leukemia % T/C, median lifespan of treated compared to control mice",P388 Leukemia; 12.5 mg/kg,129%
same,"P388 Leukemia % T/C, median lifespan of treated compared to control mice",P388 Leukemia; 25 mg/kg,133%
same,"P388 Leukemia % T/C, median lifespan of treated compared to control mice",P388 Leukemia; 50 mg/kg,133%
same,"P388 Leukemia % T/C, median lifespan of treated compared to control mice",P388 Leukemia; 100 mg/kg,117%
CC1CN(c2c(F)cc3c(=O)c4c(=O)[nH]sc4n(C4CC4)c3c2F)CCN1 (stereo not shown) [Example 3],"Topoisomerase II-mediated DNA breakage, extent of breakage",DNA topoisomerase II,SB
same,"Topoisomerase II-mediated DNA breakage, Concentration",DNA topoisomerase II,32 µg/mL
same,IC50,[2],3.1 µg/mL
same,IC50,"A549 cell line; 72 h, A549, three days, MTT",8.3 µg/mL
same,IC50,"[3]; 72 h, HCT-8 human colon cancer, three days, MTT",14 µg/mL
same,"LL (T/C), median weight ratio of treated to control tumors",[4]; 31.5 mg/kg,0.81
same,"LL (T/C), median weight ratio of treated to control tumors",[4]; 62.5 mg/kg,0.75
same,"LL (T/C), median weight ratio of treated to control tumors",[4]; 125 mg/kg,0.59
same,"LL (T/C), median weight ratio of treated to control tumors",[4]; 250 mg/kg,0.35
same,"P388 Leukemia % T/C, median lifespan of treated compared to control mice",P388 Leukemia; 31.5 mg/kg,145%
same,"P388 Leukemia % T/C, median lifespan of treated compared to control mice",P388 Leukemia; 62.5 mg/kg,145%
same,"P388 Leukemia % T/C, median lifespan of treated compared to control mice",P388 Leukemia; 125 mg/kg,160%
same,"P388 Leukemia % T/C, median lifespan of treated compared to control mice",P388 Leukemia; 250 mg/kg,160%
COc1cc([C@@H]2c3cc4c(cc3[C@@H](O[C@@H]3O[C@@H]5CO[C@@H](c6cccs6)O[C@H]5[C@H](O)[C@H]3O)[C@H]3COC(=O)[C@H]23)OCO4)cc(OC)c1O [teniposide],effect on DNA topoisomerase-mediated DNA breakage-rejoining / cleavage,DNA topoisomerases,found to affect the breakage-rejoining reaction of mammalian DNA mediated by DNA topoisomerases; also recorded: known to act by inducing topo II mediated DNA cleavage
O=c1[nH]sc2c1c(=O)c1cc(F)c(N3CCNCC3)c(F)c1n2C1CC1 [Example 2],"Topoisomerase II-mediated DNA breakage, extent of breakage",DNA topoisomerase II,SB
same,"Topoisomerase II-mediated DNA breakage, Concentration",DNA topoisomerase II,32 µg/mL
same,IC50,Hela cells; HeLa,3.9 µg/mL
same,IC50,[1],0.99 µg/mL
O=C1c2c(O)ccc(O)c2C(=O)c2c(NCCNCCO)ccc(NCCNCCO)c21 [mitoxantrone],effect on DNA topoisomerase-mediated DNA breakage-rejoining / cleavage,DNA topoisomerases,found to affect the breakage-rejoining reaction of mammalian DNA mediated by DNA topoisomerases
CCn1c2s[nH]c(=O)c2c(=O)c2cc(F)c(N3CCNCC3)c(F)c21 [Example 14],"Topoisomerase II-mediated DNA breakage, extent of breakage",DNA topoisomerase II,MB
same,"Topoisomerase II-mediated DNA breakage, Concentration",DNA topoisomerase II,64 µg/mL
same,IC50,Hela cells; HeLa,4 µg/mL
same,IC50,[1],1.5 µg/mL
